Our source for the IC50 values is patent publication US5538950A, “Endothelin antagonists and their preparation” (Fujisawa Pharmaceutical Co., Ltd., priority 1991, dated 1996).

The experiment relates to endothelin receptor (crude receptor membrane preparation of porcine aorta). Briefly: Radioligand binding assay: 125I-endothelin-1 binding to porcine aorta membrane. Particulars: ^125 I-Endothelin-1 1.67×10^-11 M, room temperature, 60 minutes, read-out: Effect on specific binding of ^125 I-endothelin-1 in porcine aorta membrane, IC50. On the procedure: Radioligand binding assay:
(a) Crude receptor membrane preparation:
Porcine aorta was purchased from Pel-Freez Biologicals (U.S.A.) and stored at -80° C. until use.
Porcine aorta (50 g) was thawed and dissected free from fatty tissue, minced with scissors and then homogenized with a polytron (Brinkmann PT-20, maximal speed for 3×10 sec) in 100 ml buffer (0.25M sucrose, 10 mM Tris-HCl, 0.1 mM EDTA).
The homogenate was centrifuged at 10,000 g for 20 minutes at 4° C.
The supernatant, containing the plasma membrane fraction, was centrifuged at 100,000 g for 60 minutes at 4° C., and then resultant pellets were referred to as crude membrane fractions.
The pellets were resuspended in 25 ml of binding assay buffer (50 mM Tris-HCl, 100 mM NaCl, 5 mM MgCl2, 1.5 μg/ml phenylmethylsulfonyl fluoride (PMSF), 120 μg/ml bacitracin, 12 μg/ml leupepcin, 6 μg/ml chymostain, 0.1% bovine serum albumin (BSA), pH 7.5).
The aorta membrane fractions were stored at -80° C. until use.
(b) ^125 I-endothelin-1 binding assay: […]
After incubation, the incubation mixture were filtered through Glass-fiber GF/C filter (pretreated with 0.1% polyethylene imine for 3 hours prior to use) using cell harvester (Brandel M-24S). […] The filters were counted in a gamma counter (Packard Auto Gamma Model 5650).

Structures are written as SMILES. Structures can show the parent of a compound that is named as a salt.

Regarding `CC(C)C[C@H](CC(=O)N1CCCCC1)C(=O)N[C@H](Cc1cn(C)c2ccccc12)C(=O)N[C@H](Cc1ccccn1)C(N)=O` [Compound A, [(2R)-2-(Piperidinocarbonyl)methyl-4-methylvaleryl]-D-TrP(Me)-D-Pya-NH2 hydrochloride], the IC50 was determined as 5.2 nM.

Broadly, the IC50 is the midpoint of a concentration-inhibition curve.
